In the NIST ThermoML archive (doi:10.1021/je900596d):

Conditions: Liquid; for mass density: Vibrating tube method; for vapor or sublimation pressure: Closed cell (Static) method

FC(F)=C(F)C(F)(F)F [hexafluoropropene]
Conditions	mass density [kg/m3]
323.37 K, 3190.6 kPa	1208.65
323.37 K, 3233.2 kPa	1209.26
323.37 K, 3274 kPa	1209.98
323.37 K, 3319.3 kPa	1210.67
323.37 K, 3363.9 kPa	1211.37
323.37 K, 3409 kPa	1212.2
323.37 K, 3453.1 kPa	1212.75
323.37 K, 3494.3 kPa	1213.56
323.37 K, 3536.1 kPa	1214.13
323.37 K, 3576.1 kPa	1214.83
323.37 K, 3614.3 kPa	1215.37
323.37 K, 3655.5 kPa	1215.99
323.37 K, 3696.8 kPa	1216.59
323.37 K, 3734.8 kPa	1217.22
323.37 K, 3774.4 kPa	1217.9
323.37 K, 3814.2 kPa	1218.51
323.37 K, 3853.1 kPa	1219.11
323.37 K, 3890.4 kPa	1219.71
323.37 K, 3929.4 kPa	1220.24
323.37 K, 3968.3 kPa	1220.84
323.37 K, 4008.7 kPa	1221.41
323.37 K, 4049.2 kPa	1222.01
323.37 K, 4086.5 kPa	1222.57
323.37 K, 4125.9 kPa	1223.19
323.37 K, 4203.9 kPa	1224.27
323.37 K, 4242.8 kPa	1224.81
323.37 K, 4283.2 kPa	1225.52
323.37 K, 4323.7 kPa	1226
323.37 K, 4365 kPa	1226.67
323.37 K, 4405.1 kPa	1227.17
323.37 K, 4444.7 kPa	1227.66
323.37 K, 4485 kPa	1228.31
323.37 K, 4510.8 kPa	1228.65
323.37 K, 4561.5 kPa	1229.42
323.37 K, 4618.8 kPa	1230.22
323.37 K, 4671.5 kPa	1230.85
323.37 K, 4727.5 kPa	1231.69
323.37 K, 4782 kPa	1232.28
323.37 K, 4834 kPa	1233.09
323.37 K, 4887.1 kPa	1233.93
323.37 K, 4938.4 kPa	1234.66
323.37 K, 4991 kPa	1235.13
323.37 K, 5040.4 kPa	1235.89
323.37 K, 5097.9 kPa	1236.56
323.37 K, 5155.7 kPa	1237.37
323.37 K, 5211.3 kPa	1238.02
323.37 K, 5267.7 kPa	1238.8
323.37 K, 5326.8 kPa	1239.64
323.37 K, 5386 kPa	1240.28
323.37 K, 5440.9 kPa	1241.12
323.37 K, 5498.8 kPa	1241.79
323.37 K, 5518.2 kPa	1242.1
323.37 K, 5575.5 kPa	1242.7
323.37 K, 5631.7 kPa	1243.39
323.37 K, 5693 kPa	1244.16
323.37 K, 5751.8 kPa	1244.98
323.37 K, 5808.1 kPa	1245.67
323.37 K, 5864.8 kPa	1246.37
323.37 K, 5921.9 kPa	1247.09
323.37 K, 5977.9 kPa	1247.78
323.37 K, 6035 kPa	1248.49
323.37 K, 6091.4 kPa	1249
323.37 K, 6150.7 kPa	1249.77
323.37 K, 6208.1 kPa	1250.43
323.37 K, 6265.4 kPa	1251.23
323.37 K, 6323.2 kPa	1251.69
323.37 K, 6380.6 kPa	1252.41
323.37 K, 6438.3 kPa	1253.13
323.37 K, 6494.6 kPa	1253.91
323.37 K, 6551.8 kPa	1254.4
323.37 K, 6606.9 kPa	1255.07
323.37 K, 6663.3 kPa	1255.73
323.37 K, 6721.4 kPa	1256.27
323.37 K, 6837.9 kPa	1257.77
323.37 K, 6894.2 kPa	1258.24
323.37 K, 6952.1 kPa	1259
323.37 K, 7008.2 kPa	1259.55
323.37 K, 7067.2 kPa	1260.31
323.37 K, 7126.4 kPa	1260.79
323.37 K, 7183.6 kPa	1261.47
323.37 K, 7241.8 kPa	1262.13
323.37 K, 7299.5 kPa	1262.75
323.37 K, 7358.7 kPa	1263.39
323.37 K, 7415.2 kPa	1263.98
323.37 K, 7474.7 kPa	1264.58
323.37 K, 7531.4 kPa	1265.19
323.37 K, 7588.8 kPa	1265.89
323.37 K, 7648.3 kPa	1266.42
323.37 K, 7707.1 kPa	1267.12
323.37 K, 7764.7 kPa	1267.63
323.37 K, 7823.9 kPa	1268.27
323.37 K, 7882.7 kPa	1268.85
323.37 K, 7940.4 kPa	1269.67
323.37 K, 7995.5 kPa	1270.08
323.37 K, 8048 kPa	1270.66
323.37 K, 8125.8 kPa	1271.24
323.37 K, 8203.2 kPa	1272.24
323.37 K, 8277.9 kPa	1272.98
323.37 K, 8354.3 kPa	1273.75
323.37 K, 8407.9 kPa	1274.11
323.37 K, 8486.2 kPa	1275.02
323.37 K, 8565.3 kPa	1275.71
323.37 K, 8644.1 kPa	1276.5
323.37 K, 8721.2 kPa	1277.38
323.37 K, 8795.7 kPa	1278.02
323.37 K, 8871.5 kPa	1278.77
323.37 K, 8923.6 kPa	1279.19
323.37 K, 9000 kPa	1279.98
323.37 K, 9075.8 kPa	1280.67
323.37 K, 9128 kPa	1281.22
323.37 K, 9181 kPa	1281.6
323.37 K, 9257 kPa	1282.4
323.37 K, 9330.9 kPa	1283.02
323.37 K, 9404.8 kPa	1283.76
323.37 K, 9479.6 kPa	1284.46
323.37 K, 9533 kPa	1284.99
323.37 K, 9609.3 kPa	1285.65
323.37 K, 9682.9 kPa	1286.27
323.37 K, 9757.3 kPa	1287.03
323.37 K, 9833.2 kPa	1287.72
323.37 K, 9909.3 kPa	1288.32
323.37 K, 9986.3 kPa	1289.02
343.18 K, 2257.1 kPa	1022.11
343.18 K, 2260.4 kPa	1022.55
343.18 K, 2263.3 kPa	1022.75
343.18 K, 2269.6 kPa	1023.31
343.18 K, 2279.2 kPa	1024.07
343.18 K, 2287.2 kPa	1024.5
343.18 K, 2297 kPa	1025.46
343.18 K, 2306 kPa	1025.93
343.18 K, 2314 kPa	1026.5

Conditions	vapor or sublimation pressure [kPa]
328.21 K	1595.1
333.21 K	1791.4
338.18 K	2007.9
